Assay results as given in patent US9663478B2, “Benzotriazine oxides as drugs targeting Mycobacterium tuberculosis” (priority 2011, dated 2017).
Converted amounts (≈) assume the structure as drawn. Like-named read-outs stand apart in the source and are kept apart here.

Columns and labels:
[1] = in vitro; conditions: African green monkey, VERO Tox (CC50)
[2] = tested on: NRP Mtb H37Rv cells; experiment: Low-oxygen recovery assay (LORA) MIC; assay type: cell-based, Mycobacterium tuberculosis; conditions: for LORA MIC: Tables P1, P2, non-replicating M. tuberculosis; for MIC: Mycobacterium tuberculosis, H37RV, read-out: LORA MIC - ITR
[3] = tested on: Mtb H37Rv; experiment: TB MIC - ITR (UIC), Institute for Tuberculosis Research; assay type: cell-based, Mycobacterium tuberculosis; conditions: for TB MIC - UIC: Tables P1, P2; for MIC: Mycobacterium tuberculosis, H37RV, Tables 1-4, read-out: TB MIC - ITR
[4] = tested on: Salmonella typhimurium tester strain TA100; experiment: Salmonella/microsome plate incorporation assay (Ames screen), TA100; assay type: cell-based
From the text: (§1) A liability in developing any bioreductively-activated antimicrobial drug is the potential for mutagenicity. Because the basis for activity of these compounds is the generation of intermediate radical species, undesirable mutagenicity poses a risk, as has been documented for many classes of bioreductive drugs, including the BTO tirapazamine (TPZ).^19,20 The most convenient methodology for assessing the potential to induce genetic damage is to use the plate incorporation method with Salmonella typhimurium strains TA98 and TA100, commonly known as the Ames assay. The Salmonella tester strains have mutations in the histidine operon, a mutation that leads to defective lipopolysaccharide (rfa), and a deletion that covers genes involved in the synthesis of biotin (bio) and in the repair of ultraviolet-induced DNA damage (uvrB).^21,22 These mutations make the strains more permeable to many molecules and increase their susceptibility to the mutagenic effects of these molecules. Given that the hypothesized mechanism of the BTO compounds is to selectively form cytotoxic radical species in bacteria over mammalian cells, a microbial mutagenicity assay is not ideal, but was used to benchmark their activities in this assay. […] Individual plate counts and their means and standard deviations, along with the condition of the background lawn, are presented in SI Table 2.
(§2) Experimental compounds were screened for microbial mutagenicity activity using the plate incorporation method with Salmonella typhimurium tester strains TA98 and TA100, in the presence and absence of an Aroclor 1254-induced rat-liver metabolic activation system containing 10% S9 (MA). The presence of the appropriate genetic characteristics was verified for the strains used in this study. Stock solutions were made by dissolving each test sample in dimethyl sulfoxide (DMSO) at 5 mg/ml. These initial stock concentrations were then serially diluted to achieve dose formulations of 100, 50, 10, 5, 1, 0.5, and 0.1 μg/plate (dosing volume 100 μl). Test plates were compared with the control plates for their revertant count and for the condition of the background bacterial lawn. A test article was considered a mutagen when the mean number of revertant colonies on the test plates exceeds the mean solvent control counts by at least a two-fold margin. Dose relatedness was also taken into account when evaluating a mutagenic response. Cytotoxicity was estimated by several parameters: a substantial decrease in the number of revertant colonies on the test plates, clearing or absence of the background bacterial lawn growth, formation of pinpoint nonrevertant colonies, or complete absence of bacterial growth.

[5] = tested on: Salmonella typhimurium tester strain TA98; experiment: Salmonella/microsome plate incorporation assay (Ames screen), TA98; assay type: cell-based; conditions: for Mean revertants per plate: Salmonella typhimurium
From the text: as §1, §2

[6] = tested on: Vero cells; conditions: African green monkey, 72 h
[7] = tested on: Mtb H37Rv; experiment: TB MIC - SRI, resazurin-based microplate assay; assay type: cell-based, Mycobacterium tuberculosis; conditions: Mycobacterium tuberculosis, H37RV, read-out: TB MIC - SRI
[8] = TA100, with metabolic activation (10% S9), 0.1 μg per plate
[9] = TA100, with metabolic activation (10% S9), 0.5 μg per plate
[10] = TA100, with metabolic activation (10% S9), 1 μg per plate
[11] = TA100, with metabolic activation (10% S9), 5 μg per plate
[12] = TA100, with metabolic activation (10% S9), 10 μg per plate
[13] = TA100, with metabolic activation (10% S9), 50 μg per plate
[14] = TA100, with metabolic activation (10% S9), 100 μg per plate
[15] = TA100, without metabolic activation, 0.1 μg per plate
[16] = TA100, without metabolic activation, 0.5 μg per plate
[17] = TA100, without metabolic activation, 1 μg per plate
[18] = TA100, without metabolic activation, 5 μg per plate
[19] = TA100, without metabolic activation, 10 μg per plate
[20] = TA100, without metabolic activation, 50 μg per plate
[21] = TA100, without metabolic activation, 100 μg per plate

## [O-][n+]1nc(NC2CCCCCC2)[n+]([O-])c2ccccc21 [SRI-012256]
[1]
  CC50 at 72 h: 7.9 mg/L (≈ 28.8 µM)
[2]
  LORA MIC: 0.5 mg/L
[3]
  TB MIC - UIC: 1.64 mg/L

## CCNc1n[n+]([O-])c2cc3c(cc2[n+]1[O-])CCC3 [Compound 15fa, 3-(ethylamino)-7,8-dihydro-6H-indeno[5,6-e][1,2,4]triazine 1,4-dioxide]
[2]; NRP Mtb, Tables 1-4 and text
  MIC: 0.83 mg/L (≈ 3.37 µM)
[4]; [8]
  Mean revertants per plate: 145.5
  Ratio treated/solvent: 0.9
[4]; [9]
  Mean revertants per plate: 148.5
  Ratio treated/solvent: 0.9
[4]; [10]
  Mean revertants per plate: 185.0
  Ratio treated/solvent: 1.1
[4]; [11]
  Mean revertants per plate: 207.0
  Ratio treated/solvent: 1.2
[4]; [12]
  Mean revertants per plate: 298.5
  Ratio treated/solvent: 1.8
[4]; [13]
  Mean revertants per plate: 854.5
  Ratio treated/solvent: 5.1
[4]; [14]
  Mean revertants per plate: 1450.0
  Ratio treated/solvent: 8.6
[4]; [15]
  Mean revertants per plate: 127.0
  Ratio treated/solvent: 0.8
[4]; [16]
  Mean revertants per plate: 137.0
  Ratio treated/solvent: 0.8
[4]; [17]
  Mean revertants per plate: 150.5
  Ratio treated/solvent: 0.9
[4]; [18]
  Mean revertants per plate: 259.0
  Ratio treated/solvent: 1.6
[4]; [19]
  Mean revertants per plate: 299.5
  Ratio treated/solvent: 1.8
[4]; [20]
  Mean revertants per plate: 913.5
  Ratio treated/solvent: 5.6
[4]; [21]
  Mean revertants per plate: 1268.0
  Ratio treated/solvent: 7.8
[4]; presence and absence of metabolic activation
  number of revertant colonies, TA100: dose-related increases in the number of revertant colonies
[5]
  number of revertant colonies, TA98: dose-related increases in the number of revertant colonies
[5]; 0.1 μg per plate
  Mean revertants per plate: 21.0
[5]; 0.1 μg/plate
  Mean revertants per plate: 35.5
[5]; 0.5 μg per plate
  Mean revertants per plate: 19.0
[5]; 0.5 μg/plate
  Mean revertants per plate: 36.0
[5]; 1 μg per plate
  Mean revertants per plate: 26.0
[5]; 1 μg/plate
  Mean revertants per plate: 30.5
[5]; 5 μg per plate
  Mean revertants per plate: 47.0
[5]; 5 μg/plate
  Mean revertants per plate: 37.0
[5]; 10 μg per plate
  Mean revertants per plate: 52.0
[5]; 10 μg/plate
  Mean revertants per plate: 45.0
[5]; 50 μg per plate
  Mean revertants per plate: 142.5
[5]; 50 μg/plate
  Mean revertants per plate: 141.0
[5]; 100 μg per plate
  Mean revertants per plate: 345.0
[5]; 100 μg/plate
  Mean revertants per plate: 215.5
[5]; TA98, with metabolic activation (10% S9), 0.1 μg per plate
  Ratio treated/solvent: 1.0
[5]; TA98, with metabolic activation (10% S9), 0.5 μg per plate
  Ratio treated/solvent: 1.0
[5]; TA98, with metabolic activation (10% S9), 1 μg per plate
  Ratio treated/solvent: 0.9
[5]; TA98, with metabolic activation (10% S9), 5 μg per plate
  Ratio treated/solvent: 1.0
[5]; TA98, with metabolic activation (10% S9), 10 μg per plate
  Ratio treated/solvent: 1.5
[5]; TA98, with metabolic activation (10% S9), 50 μg per plate
  Ratio treated/solvent: 4.0
[5]; TA98, with metabolic activation (10% S9), 100 μg per plate
  Ratio treated/solvent: 9.7
[5]; TA98, without metabolic activation, 0.1 μg per plate
  Ratio treated/solvent: 0.8
[5]; TA98, without metabolic activation, 0.5 μg per plate
  Ratio treated/solvent: 0.7
[5]; TA98, without metabolic activation, 1 μg per plate
  Ratio treated/solvent: 1.0
[5]; TA98, without metabolic activation, 5 μg per plate
  Ratio treated/solvent: 1.8
[5]; TA98, without metabolic activation, 10 μg per plate
  Ratio treated/solvent: 1.8
[5]; TA98, without metabolic activation, 50 μg per plate
  Ratio treated/solvent: 5.5
[5]; TA98, without metabolic activation, 100 μg per plate
  Ratio treated/solvent: 8.5
[3]
  MIC: 0.95 mg/L (≈ 3.86 µM)

## [O-][n+]1nc(NC2CC2)[n+]([O-])c2ccccc21 [SRI-012255]
[1]
  CC50 at 72 h: 20.7 mg/L (≈ 94.9 µM)
[2]
  LORA MIC: 1.76 mg/L
[3]
  TB MIC - UIC: 1.82 mg/L

## [O-][n+]1nc(NC2CCCC2)[n+]([O-])c2ccccc21 [SRI-012265]
[1]
  CC50 at 72 h: 10.4 mg/L (≈ 42.2 µM)
[2]
  LORA MIC: 0.68 mg/L
[3]
  TB MIC - UIC: 3.58 mg/L

## Cc1cccc2c1[n+]([O-])c(NC1CCC1)n[n+]2[O-] [Compound 15ed, 3-(cyclobutylamino)-5-methylbenzo[e][1,2,4]triazine 1,4-dioxide]
[2]; NRP Mtb, Tables 1-4 and text
  MIC: 0.43 mg/L (≈ 1.75 µM)
[6]
  Vero Tox CC50: 22 mg/L
[7]; Tables 1-4 and text
  MIC: 0.31 mg/L (≈ 1.26 µM)
[3]
  MIC: 0.47 mg/L (≈ 1.91 µM)

## [O-][n+]1nc(N2CCOCC2)[n+]([O-])c2ccccc21 [Compound 17p, 3-morpholinobenzo[e][1,2,4]triazine 1,4-dioxide]
[2]; NRP Mtb, Tables 1-4 and text
  MIC: 19 mg/L (≈ 76.5 µM)
[6]
  Vero Tox CC50: 5.4 mg/L
[7]; Tables 1-4 and text
  MIC: 2.5 to 5 mg/L (≈ 10.1 to 20.1 µM)
[3]
  MIC: 3.7 mg/L (≈ 14.9 µM)

## CCC(COC)Nc1n[n+]([O-])c2cc(F)ccc2[n+]1[O-] (centres unmarked) [SRI-012278]
[2]
  LORA MIC: 1.87 mg/L
[6]
  VERO Tox-SRI: 6.3
[7]; Tables P1-P3
  MIC: 5 mg/L (≈ 17.7 µM)
[3]
  TB MIC - UIC: 2 mg/L

## C[C@@H](Nc1n[n+]([O-])c2ccccc2[n+]1[O-])C1CCCCC1 [Compound 8k, (R)-3-((1-cyclohexylethyl)amino)benzo[e][1,2,4]triazine 1,4-dioxide]
[2]; NRP Mtb, Tables 1-4 and text
  MIC: 0.36 mg/L (≈ 1.25 µM)
[6]
  Vero Tox CC50: 8.9 mg/L
[7]; Tables 1-4 and text
  MIC: 1.2 mg/L (≈ 4.16 µM)
[3]
  MIC: 0.92 mg/L (≈ 3.19 µM)

## [O-][n+]1nc(NC2CC2)[n+]([O-])c2ccc(F)cc21 [Compound 15ab, 3-(cyclopropylamino)-7-fluorobenzo[e][1,2,4]triazine 1,4-dioxide]
[2]
  MIC: 3.5 mg/L (≈ 14.8 µM)
[6]
  Vero Tox CC50: 1.3 mg/L
[7]; Tables 1-4 and text
  MIC: 0.31 mg/L (≈ 1.31 µM)
[3]
  MIC: 0.93 mg/L (≈ 3.94 µM)
